pIC50: −log10 of the molar value. A value given as a limit tells only on which side of the number the result lay.

The source of these data is patent publication US20080139536A1, “Benzodiazepines for Treating or Preventing Rsv Infection” (Novartis Pharmaceuticals Corporation, priority 2004, published 2008).

One test concerns RSV (RSS strain). Nature of the test: RSV ELISA antigen reduction assay in Hep-2 cells. Type of test: cell-based, Respiratory Syncytial Virus. Conditions: RSV-infected Hep-2 cells, 3 day assay, ELISA OD 490 nm, 7-point dilution 50 μM-0.78 μM. As for the experimental part: This was quantified by optical density (OD) measurement.
This assay was set up using all 96 wells of flat-bottomed 96-well plates. The outer wells were not subjected to any greater amount of evaporation than the inner wells during the 3 day assay period. (i.e. No “edge effect” seen).
Plates were set up one day before addition of virus and compounds. The assay then ran for 3 days with ELISA development taking place on the 4th day.
All 96 wells of a microtitre plate were seeded at a density of 4×10^3 Hep-2 cells/well in 100 μl/well of Growth Medium (GM) consisting of Dulbecco's MEM (DMEM) with Glutamax-1, Sodium Pyruvate, 1000 mg/l glucose and pyridoxine (Invitrogen, catalogue number 21885-025) and supplemented with 10% FBS. (See Plate 1).
A frozen vial of RSV (RSS strain provided by Virogen Ltd) stock solution was removed from the −80 freezer or liquid nitrogen store and diluted to a known Multiplicity of Infection (m.o.i) in Growth Medium.
The m.o.i. was calculated by prior titration of the virus stock (by the ELISA assay method) as the virus input required to achieve a window of at least 0.8 OD units between infected and uninfected control wells.
50 μl of diluted virus was added to infected, “virus+”, wells by multichannel pipette; 50 μl of Growth Medium was added to uninfected, cell control wells (CC) by multichannel pipette. (See Plate 2)
Plates were incubated at 37° C. for 1 hr to allow virus adsorption.
Compounds were made up at 4× strength in GM containing 2% DMSO (a final DMSO concentration in the assay of 0.5%).
Six compounds were tested on each assay plate as illustrated below. (See Plate 3). Compounds were tested in duplicate wells across a 7-point dilution series (from 50 μM-0.78 μM): in the presence of virus.
Virus infected, untreated wells served as the virus control (VC); Uninfected, untreated wells serve as the cell control (CC). The difference in absorbance between CC and VC wells constitutes the assay window.
200 μl of GM containing 2% DMSO was added to all wells except the ‘50 μM’ or first column, to which 392 μl of GM was added. 8 μl of each test compound was cherry-picked from a thawed Arrow screening plate and transferred to the appropriate well in the ‘50 μM’ column. Since the compound stock was at 10 mM in 100% DMSO, this will maintain the DMSO level at 2% at the top compound concentration.
Using a multichannel pipette, 200 μl was transferred from the 50 μM column to the 25 μM column, then to the 12.5 μM column and so on across the dilution plate creating a serial doubling dilution. Compounds were mixed upon transfer and tips changed between transfers, ensuring also that no compound was transferred to the last column of compound-free wells (0 μM).
The dilution plate was turned lengthways and 50 μl of compound easily transferred by multichannel pipette from the dilution plate to the assay plate, column by column. There was therefore an excess of 100 μl remaining in the dilution plate.
Plates were incubated at 37° C., 5% CO2 for 3 days.
Media was tapped out from wells directly into Virkon (1% solution in water) and plates were washed by immersing in a plastic box containing PBS. 50 μl/well of 75%/25% vol/vol acetone/methanol fixative was added by multichannel pipette and left for 3 mins.
Some 200 μl of blocking solution (2% Marvel in PBS containing 0.05% Tween) was added per well by multichannel pipette. Plates were incubated at 37° C. in a shaking incubator for 60 mins.
RSV mouse monoclonal antibody NCL-RSV3 (Novocastra) was diluted 1/400 in PBS/2% Marvel/0.05% Tween and 50 μl was added per well. Plates were incubated at 37° C. in a shaking incubator for 90 mins.
DAKo rabbit anti-mouse HRP conjugate (DAKO catalogue number P0260) was diluted 1/1000 in PBS/2% Marvel/0.05% Tween and 50 μl was added per well. Plates were incubated at 37° C. in a shaking incubator for 60 mins.
Substrate (SigmaFast OPD) was prepared in advance by dissolving 1 urea tablet in 20 mL water. […]
On the technique in general: In an ELISA, binding on a coated surface is turned into a signal by an enzyme label.
On to `O=C(N[C@H]1N=C(c2ccccc2)c2ccccc2NC1=O)c1ccc(F)cc1N1CCOCC1` [Example 13, (S)-4-Fluoro-2-morpholino-4-yl-N-(2-oxo-5-phenyl-2,3-dihydro-1H-benzo[e][1,4]diazepin-3-yl)-benzamide], for which the negative-log IC50 (pIC50) (in general, −log10 of the IC50, conventionally taken in molar units) is 5.00 to 5.30.

With `O=C(N[C@H]1N=C(c2ccccc2)c2ccccc2NC1=O)c1ccccc1N1CCS(=O)(=O)CC1` [Example 3], the negative-log IC50 (pIC50) was 5.00 to 5.30.

The test is the same for the next values; noted with them: human respiratory syncytial virus, 72 h; RSV-infected Hep-2 cells, 3 day assay, ELISA OD 490 nm, 7-point dilution 50 μM-0.78 μM.
Turning to `O=C(N[C@H]1N=C(c2ccccc2)c2ccccc2NC1=O)c1cc(C(F)(F)F)ccc1N1CCOCC1` [Example 20, (S)-2-Morpholin-4-yl-N-(2-oxo-5-phenyl-2,3-dihydro-1H-benzo[e][1,4]diazepin-3-yl)-5-trifluoromethyl-benzamide], the pIC50 is < 5.00.

`O=C(N[C@H]1N=C(c2ccccc2)c2ccccc2NC1=O)c1cccc(S(=O)(=O)N2CCOCC2)c1` [Example 31, (S)-3-(Morpholine-4-sulfonyl)-N-(2-oxo-5-phenyl-2,3-dihydro-1H-benzo[e][1,4]diazepin-3-yl)-benzamide] showed a negative logarithm of the IC50 (pIC50) of 5.00 to 5.30.

Regarding `CN1CCN(S(=O)(=O)c2cccc(C(=O)N[C@H]3N=C(c4ccccc4)c4ccccc4NC3=O)c2)CC1` [Example 28, (S)-3-(4-Methyl-piperazine-1-sulfonyl)-N-(2-oxo-5-phenyl-2,3-dihydro-1H-benzo[e][1,4]diazepin-3-yl)-benzamide], the pIC50 was < 5.00.

On to `Cc1occ(S(=O)(=O)N2CCOCC2)c1C(=O)N[C@H]1N=C(c2ccccc2)c2ccccc2NC1=O` [Example 46, (S)-2-Methyl-4-(morpholin-4-sulfonyl)-furan-3-carboxylic acid (2-oxo-5-phenyl-2,3-dihydro-1H-benzo[e][1,4]diazepin-3-yl)-amide], for which the pIC50 was 5.00 to 5.30.

With `O=C(NC1N=C(c2ccccc2)c2ccccc2NC1=O)c1ccc(N2CCCCC2)nc1` (racemic) [Example 2, 3,4,5,6-Tetrahydro-2H-[1,2′]bipyridinyl-5′-carboxylic acid (2-oxo-5-phenyl-2,3-dihydro-1H-benzo[e][1,4]diazepin-3-yl)-amide], the pIC50 is 5.00 to 5.30.

Turning to `O=C(Nc1ccc(Oc2ccccc2)cc1)NC1N=C(c2ccccc2)c2ccccc2NC1=O` (racemic) [Example 52, 1-(2-Oxo-5-phenyl-2,3-dihydro-1H-benzo[e][1,4]diazepin-3-yl)-3-(4-phenoxy-phenyl)-urea], the pIC50 was 5.00 to 5.30.

As for `O=C(N[C@H]1N=C(c2ccccc2)c2ccccc2NC1=O)c1ccc(C(F)(F)F)cc1N1CCCC1` [Example 16, (S)—N-(2-Oxo-5-phenyl-2,3-dihydro-1H-benzo[e][1,4]diazepin-3-yl)-2-pyrrolidin-1-yl-4-trifluoromethyl-benzamide], the pIC50 is 5.00 to 5.30.

For `CN1CCN(Cc2ccc(C(=O)N[C@H]3N=C(c4ccccc4)c4ccccc4NC3=O)o2)CC1` [Example 8, (S)-5-(4-Methyl-piperazin-1-ylmethyl)-furan-2-carboxylic acid (2-oxo-5-phenyl-2,3-dihydro-1H-benzo[e][1,4]diazepin-3-yl)-amide], the pIC50 was > 5.30.

As for `O=C(N[C@H]1N=C(c2ccccc2)c2ccccc2NC1=O)c1cccc(S(=O)(=O)N2CCCCC2)c1` [Example 30, (S)—N-(2-Oxo-5-phenyl-2,3-dihydro-1H-benzo[e][1,4]diazepin-3-yl)-3-(piperidine-1-sulfonyl)-benzamide], the pIC50 was 5.00 to 5.30.

In the case of `O=C(N[C@H]1N=C(c2ccccc2)c2ccccc2NC1=O)c1ccc(CN2CCCCC2)o1` [Example 10, (S)-5-Piperidin-1-ylmethyl-furan-2-carboxylic acid (2-oxo-5-phenyl-2,3-dihydro-1H-benzo[e][1,4]diazepin-3-yl)-amide], the pIC50 is > 5.30.

With `O=C(N[C@H]1N=C(c2ccccc2)c2ccccc2NC1=O)c1csc(-c2cccnc2)n1` [Example 38, (S)-2-Pyridin-3-yl-thiazole-4-carboxylic acid (2-oxo-5-phenyl-2,3-dihydro-1H-benzo[e][1,4]diazepin-3-yl)-amide], the pIC50 is > 5.30.

On to `Cc1cccc(C(=O)N[C@H]2N=C(c3ccccc3)c3ccccc3NC2=O)c1N1CCS(=O)(=O)CC1` [Example 23, (S)-2-(1,1-Dioxo-1λ6-thiomorpholin-4-yl)-3-methyl-N-(2-oxo-5-phenyl-2,3-dihydro-1H-benzo[e][1,4]diazepin-3-yl)-benzamide], for which the pIC50 is > 5.30.

For the compound `O=C(N[C@H]1N=C(c2ccccc2)c2ccccc2NC1=O)c1ccc(CO)o1` [Example 33, (S)-5-Hydroxymethyl-furan-2-carboxylic acid (2-oxo-5-phenyl-2,3-dihydro-1H-benzo[e][1,4]diazepin-3-yl)-amide], the pIC50 was 5.00 to 5.30.

The compound `O=C(N[C@H]1N=C(c2ccccc2)c2ccccc2NC1=O)c1occc1CN1CCOCC1` [Example 44, (S)-3-Morpholin-4-ylmethyl-furan-2-carboxylic acid (2-oxo-5-phenyl-2,3-dihydro-1H-benzo[e][1,4]diazepin-3-yl)-amide] showed a negative-log IC50 (pIC50) of 5.00 to 5.30.

Take `O=C(N[C@H]1N=C(c2ccccc2)c2ccccc2NC1=O)c1ccc(N2CCOCC2)nc1` [Example 47, (S)-6-Morpholin-4-yl-N-(2-oxo-5-phenyl-2,3-dihydro-1H-benzo[e][1,4]diazepin-3-yl)-nicotinamide]: the negative logarithm of the IC50 (pIC50) was > 5.30.

As to `O=C(N[C@H]1N=C(c2ccccc2)c2ccccc2NC1=O)c1cc(Cl)ccc1N1CCS(=O)(=O)CC1` [Example 6, (S)-5-Chloro-2-(1,1-dioxo-1λ6-thiomorpholin-4-yl)-N-(2-oxo-5-phenyl-2,3-dihydro-1H-benzo[e][1,4]diazepin-3-yl)-benzamide], the pIC50 is 5.00 to 5.30.

Consider `O=C(N[C@H]1N=C(c2ccccc2)c2ccccc2NC1=O)c1cccc(CN2CCOCC2)c1` [Example 42, (S)-3-Morpholin-4-ylmethyl-N-(2-oxo-5-phenyl-2,3-dihydro-1H-benzo[e][1,4]diazepin-3-yl)-benzamide], for which the pIC50 was > 5.30.

Consider `O=C(N[C@H]1N=C(c2ccccc2)c2ccccc2NC1=O)c1cc(N2CCS(=O)(=O)CC2)ccc1Cl` [Example 36, (S)-2-Chloro-5-(1,1-dioxo-1λ6-thiomorpholin-4-yl)-N-(2-oxo-5-phenyl-2,3-dihydro-1H-benzo[e][1,4]diazepin-3-yl)-benzamide], for which the negative-log IC50 (pIC50) is > 5.30.

For `O=C(N[C@H]1N=C(c2ccccc2)c2ccccc2NC1=O)c1ccc(-c2ccccn2)s1` [Example 45, (S)-5-Pyridin-2-yl-thiophene-2-carboxylic acid (2-oxo-5-phenyl-2,3-dihydro-1H-benzo[e][1,4]diazepin-3-yl)-amide], the pIC50 is > 5.30.

For `O=C(N[C@H]1N=C(c2ccccc2)c2ccccc2NC1=O)c1ccc(F)cc1N1CCCCC1` [Example 12, (S)-4-Fluoro-N-(2-oxo-5-phenyl-2,3-dihydro-1H-benzo[e][1,4]diazepin-3-yl)-2-piperidin-1-yl-benzamide], the negative logarithm of the IC50 (pIC50) was 5.00 to 5.30.

As for `O=C(N[C@H]1N=C(c2ccccc2)c2ccccc2NC1=O)c1ccc(CN2CCOCC2)o1` [Example 32, (S)-5-Morpholin-4-ylmethyl-furan-2-carboxylic acid (2-oxo-5-phenyl-2,3-dihydro-1H-benzo[e][1,4]diazepin-3-yl)-amide], the negative logarithm of the IC50 (pIC50) was > 5.30.
